Data: patent US6716837B1, “Heterocyclic compounds for the treatment of migraine” (NPS Allelix Biopharmaceuticals, Inc., priority 1999, dated 2004)

Each molecule was assayed against T1, 5-HT1D receptor (Homo sapiens, UniProt P28221) (assay: 5-HT1D receptor binding, inhibition of 3H-serotonin binding). Settings: 100 nM test compound; 3H-serotonin 1 nM; membranes from recombinant cells; 60 minute incubation at 22° C.; read-out: percent inhibition of binding of the radio ligand at the 5-HT1D receptor.
T1 construct: expressed in transfected cells
T1 sequence (P28221 whole entry): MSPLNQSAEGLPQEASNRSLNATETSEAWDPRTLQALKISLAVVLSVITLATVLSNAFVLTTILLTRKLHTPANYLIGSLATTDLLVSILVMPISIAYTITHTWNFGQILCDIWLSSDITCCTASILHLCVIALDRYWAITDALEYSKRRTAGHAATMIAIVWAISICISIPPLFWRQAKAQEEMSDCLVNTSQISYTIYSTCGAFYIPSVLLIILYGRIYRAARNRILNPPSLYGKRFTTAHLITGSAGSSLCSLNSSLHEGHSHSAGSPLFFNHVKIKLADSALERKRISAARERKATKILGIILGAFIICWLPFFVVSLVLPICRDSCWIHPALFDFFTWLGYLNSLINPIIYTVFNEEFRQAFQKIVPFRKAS
Description: Selected compounds of the previous examples, as well as reference compounds, were evaluated for binding affinity using cell types receptive specifically to 5-HT1D and 5-HT1B ligands. The assay protocol generally entailed the incubation of membranes prepared from cells expressing the 5-HT1D or 5-HT1B subtype of 5-HT receptors with ^3H-serotonin (1 nM for 5-HT1D and 2.5 nM for 5-HT1B). Specific concentrations of the test compound were incubated with the radio ligand and the membrane homogenates prepared from the recombinant cells. After a 60 minute incubation at 22° C., the incubation was terminated by vacuum filtration. The filters were washed with buffer and counted for radioactivity using liquid scintillation spectroscopy. The affinity of the test compound for the 5-HT1D receptor is expressed as the amount (in percent) of binding of the radio ligand that is inhibited in the presence of 100 nM of test compound. A greater percent inhibition indicates greater affinity for the 5-HT1D receptor.
With `CC(C)n1ccc2ccc(CCN(C)C)cc21` [Example 2, 6-(2-(N,N-Dimethylamino)ethyl)-1-isopropyl-indole] the inhibition at 0.1 µM was greater than 90%.
`Brc1ccc2ccn(C3CCNCC3)c2c1` [Example 10c, 6-Bromo-1-(4-piperidinyl)-indole] was tested, and the inhibition at 0.1 µM was greater than 50%.
`CN(C)CCc1ccc2ccn(C3CCOCC3)c2c1` [Example 11b, 6-(2-Dimethylaminoethyl)-1-(tetrahydropyran4-yl)-indole] was tested, and the inhibition at 0.1 µM was greater than 90%.
`CC(C)n1ncc2ccc(CCN(C)C)cc21` [Example 14, 6-(2-(N,N-Dimethylamino)ethyl)-1-isopropyl-1H-indazole] gave an inhibition at 0.1 µM greater than 90%.
`CC(C)n1ccc2ccc(C3=CCN(C)CC3)cc21` [Example 16c, 6-[N-Methyl-1,2,5,6-tetrahydropyridin-4-yl]-1-isopropyl-indole] showed an inhibition at 0.1 µM greater than 50%.
In the case of `CN1CC=C(c2ccc3ccn(-c4ccc(F)cc4)c3c2)CC1` [Example 19, 1-(4-Fluorophenyl)-6-(N-methyl-1,2,5,6-tetrahydropyridin-4-yl)-indole], the inhibition at 0.1 µM is reported as greater than 75%.
`CN1CC=C(c2ccc3ccn(-c4ccsc4)c3c2)CC1` [Example 19c, 6-(N-Methyl-1,2,5,6-tetrahydropyridin-4-yl)-1-(3-thienyl)-indole] gave an inhibition at 0.1 µM greater than 75%.
For `CN1CC=C(c2ccc3ccn(-c4cccnc4)c3c2)CC1` [Example 19d, 6-(N-Methyl-1,2,5,6-tetrahydropyridin-4-yl)-1-(3-pyridyl)-indole], the inhibition at 0.1 µM was greater than 75%.
`CN(C)CCc1ccc2ccn(-c3cccnc3)c2c1` [Example 19f, 6-(2-Dimethylaminoethyl)-1-(3-pyridinyl)-indole] showed an inhibition at 0.1 µM greater than 90%.
Work on `CN1CC=C(c2ccc3ccn(-c4nccs4)c3c2)CC1` [Example 19i, 6-(N-Methyl-1,2,5,6-tetrahydropyridin-4-yl)-1-(2-thiazolyl)-indole] yielded an inhibition at 0.1 µM greater than 50%.

Each molecule was assayed against T1, 5-HT1D receptor (assay: Functional assay: inhibition of forskolin-stimulated adenyl cyclase (cAMP) in CHO cells). Settings: CHO cells stably expressing the 5-HT1D receptor; test compound at 100 nM and 10 μM.
Assay type: cell-based
Description: The 5HT1D and 5HT1B receptor subtypes respond to serotonin and other agonists by reducing adenyl cyclase mediated production of cyclic AMP. Particular test compounds were assayed for their ability to inhibit adenyl cyclase activity using the procedure described below. Forskolin was used to elevate the basal adenyl cyclase activity.
Compounds acting as antagonists at the 5HT1D and 5HT1B receptor subtypes will antagonize the agonist effect of serotonin and thus, will block the serotonin-induced inhibition of forskolin-stimulated adenyl cyclase activity. […]
The culture media of each well was removed, and the wells were washed once with serum free media. […] Basal adenyl cyclase activity was determined from wells with only SFM+IBMX media added.
The cells were then incubated at 37° C. for 30 minutes in a CO2 incubator. […] The pellets were discarded and the supernatants were stored at 4° C. until assayed for cAMP concentration. cAMP content for each extract was determined in duplicate by EIA (enzyme-immunoassay) using the Amersham Biotrak cAMP EIA kit (Amersham RPN 225).
Total inhibition (Io) of forskolin-stimulated adenyl cyclase activity by serotonin was determined as the difference in concentration of cAMP in the forskolin-treated cells (Cf) and serotonin-forskolin treated cells (Cd). […]
In the case of `CC(C)n1ccc2ccc(CCN(C)C)cc21` [Example 2, 6-(2-(N,N-Dimethylamino)ethyl)-1-isopropyl-indole], the “effect on forskolin stimulated production of cAMP (agonist activity)” value is reported as “caused a decrease in the forskolin stimulated production of cAMP”.
